± gives the expanded uncertainty stated by the source.
Tests used:
[1] = xn = mol fraction of the nth substance listed; conditions: 318.15 K, 101 kPa, Liquid
[2] = excess molar enthalpy (molar enthalpy of mixing); xn = mol fraction of the nth substance listed; conditions: 318.15 K, 101 kPa, Liquid

CCCCOC(=O)CC [butyl propanoate] + CCCCCCC
Conditions | excess molar enthalpy [kcal/mol] | excess molar volume [m3/mol]
[1], x1 = 0.0273 | – | 5.6e-08 ± 1.6e-08
[1], x1 = 0.0572 | – | 1.25e-07 ± 1.6e-08
[1], x1 = 0.1181 | – | 2.05e-07 ± 1.6e-08
[1], x1 = 0.1785 | – | 2.96e-07 ± 1.7e-08
[1], x1 = 0.2334 | – | 3.5e-07 ± 1.7e-08
[1], x1 = 0.2923 | – | 3.76e-07 ± 1.7e-08
[1], x1 = 0.3518 | – | 3.93e-07 ± 1.7e-08
[1], x1 = 0.4089 | – | 4e-07 ± 1.7e-08
[1], x1 = 0.4681 | – | 3.95e-07 ± 1.7e-08
[1], x1 = 0.528 | – | 3.75e-07 ± 1.7e-08
[1], x1 = 0.586 | – | 3.44e-07 ± 1.7e-08
[1], x1 = 0.6449 | – | 3.06e-07 ± 1.7e-08
[1], x1 = 0.7036 | – | 2.6e-07 ± 1.7e-08
[1], x1 = 0.7666 | – | 2.08e-07 ± 1.6e-08
[1], x1 = 0.8207 | – | 1.76e-07 ± 1.6e-08
[1], x1 = 0.8838 | – | 1.05e-07 ± 1.6e-08
[1], x1 = 0.937 | – | 7.2e-08 ± 1.6e-08
[2], x1 = 0.0476 | 0.0417 ± 0.00105 | –
[2], x1 = 0.1067 | 0.0841 ± 0.0017 | –
[2], x1 = 0.1732 | 0.121 ± 0.00225 | –
[2], x1 = 0.2357 | 0.146 ± 0.00263 | –
[2], x1 = 0.2979 | 0.163 ± 0.00287 | –
[2], x1 = 0.3579 | 0.176 ± 0.00311 | –
[2], x1 = 0.4131 | 0.183 ± 0.00311 | –
[2], x1 = 0.4328 | 0.185 ± 0.00311 | –
[2], x1 = 0.464 | 0.186 ± 0.00335 | –
[2], x1 = 0.475 | 0.187 ± 0.00335 | –
[2], x1 = 0.5206 | 0.186 ± 0.00335 | –
[2], x1 = 0.5701 | 0.181 ± 0.00311 | –
[2], x1 = 0.6256 | 0.171 ± 0.00311 | –
[2], x1 = 0.6846 | 0.156 ± 0.00287 | –
[2], x1 = 0.7498 | 0.134 ± 0.00239 | –
[2], x1 = 0.8152 | 0.106 ± 0.00203 | –
[2], x1 = 0.8835 | 0.0717 ± 0.00151 | –
[2], x1 = 0.9449 | 0.0357 ± 0.000956 | –

CCCCOC(=O)CC [butyl propanoate] + CCCCCCCCC
Conditions | excess molar enthalpy [kcal/mol] | excess molar volume [m3/mol]
[1], x1 = 0.0333 | – | 9.9e-08 ± 1.6e-08
[1], x1 = 0.0721 | – | 1.95e-07 ± 1.6e-08
[1], x1 = 0.139 | – | 3.26e-07 ± 1.7e-08
[1], x1 = 0.2059 | – | 4.35e-07 ± 1.8e-08
[1], x1 = 0.2687 | – | 5.18e-07 ± 1.8e-08
[1], x1 = 0.3345 | – | 5.69e-07 ± 1.8e-08
[1], x1 = 0.3947 | – | 5.89e-07 ± 1.8e-08
[1], x1 = 0.4555 | – | 6.09e-07 ± 1.8e-08
[1], x1 = 0.5165 | – | 6.08e-07 ± 1.8e-08
[1], x1 = 0.5747 | – | 5.79e-07 ± 1.8e-08
[1], x1 = 0.6293 | – | 5.5e-07 ± 1.8e-08
[1], x1 = 0.6868 | – | 5.08e-07 ± 1.8e-08
[1], x1 = 0.7408 | – | 4.43e-07 ± 1.8e-08
[1], x1 = 0.7931 | – | 3.73e-07 ± 1.7e-08
[1], x1 = 0.8466 | – | 3.03e-07 ± 1.7e-08
[1], x1 = 0.8978 | – | 2.16e-07 ± 1.7e-08
[1], x1 = 0.9473 | – | 1.21e-07 ± 1.6e-08
[2], x1 = 0.0694 | 0.0639 ± 0.00139 | –
[2], x1 = 0.1491 | 0.116 ± 0.00217 | –
[2], x1 = 0.2269 | 0.159 ± 0.00287 | –
[2], x1 = 0.302 | 0.189 ± 0.00335 | –
[2], x1 = 0.3723 | 0.207 ± 0.00359 | –
[2], x1 = 0.4365 | 0.215 ± 0.00359 | –
[2], x1 = 0.4936 | 0.215 ± 0.00359 | –
[2], x1 = 0.5364 | 0.213 ± 0.00359 | –
[2], x1 = 0.5441 | 0.211 ± 0.00359 | –
[2], x1 = 0.5775 | 0.21 ± 0.00359 | –
[2], x1 = 0.5891 | 0.207 ± 0.00359 | –
[2], x1 = 0.6309 | 0.2 ± 0.00359 | –
[2], x1 = 0.6873 | 0.184 ± 0.00311 | –
[2], x1 = 0.7512 | 0.159 ± 0.00287 | –
[2], x1 = 0.8149 | 0.128 ± 0.00237 | –
[2], x1 = 0.8787 | 0.089 ± 0.00177 | –
[2], x1 = 0.9424 | 0.0465 ± 0.00112 | –

CCCCOC(=O)CC [butyl propanoate] + CCCCCCCCCCC
Conditions | excess molar enthalpy [kcal/mol] | excess molar volume [m3/mol]
[1], x1 = 0.0439 | – | 1.43e-07 ± 1.6e-08
[1], x1 = 0.0844 | – | 2.51e-07 ± 1.7e-08
[1], x1 = 0.1613 | – | 4.24e-07 ± 1.7e-08
[1], x1 = 0.2331 | – | 5.45e-07 ± 1.8e-08
[1], x1 = 0.3029 | – | 6.41e-07 ± 1.8e-08
[1], x1 = 0.3719 | – | 7.16e-07 ± 1.9e-08
[1], x1 = 0.4347 | – | 7.45e-07 ± 1.9e-08
[1], x1 = 0.4991 | – | 7.49e-07 ± 1.9e-08
[1], x1 = 0.5571 | – | 7.43e-07 ± 1.9e-08
[1], x1 = 0.6136 | – | 7.09e-07 ± 1.9e-08
[1], x1 = 0.6682 | – | 6.64e-07 ± 1.9e-08
[1], x1 = 0.7205 | – | 6.18e-07 ± 1.8e-08
[1], x1 = 0.7715 | – | 5.27e-07 ± 1.8e-08
[1], x1 = 0.8193 | – | 4.41e-07 ± 1.8e-08
[1], x1 = 0.8661 | – | 3.61e-07 ± 1.7e-08
[1], x1 = 0.9118 | – | 2.76e-07 ± 1.7e-08
[1], x1 = 0.9546 | – | 1.35e-07 ± 1.6e-08
[2], x1 = 0.0817 | 0.0786 ± 0.00163 | –
[2], x1 = 0.1628 | 0.132 ± 0.00239 | –
[2], x1 = 0.2473 | 0.183 ± 0.00311 | –
[2], x1 = 0.325 | 0.215 ± 0.00359 | –
[2], x1 = 0.3967 | 0.234 ± 0.00406 | –
[2], x1 = 0.463 | 0.243 ± 0.00406 | –
[2], x1 = 0.4868 | 0.243 ± 0.00406 | –
[2], x1 = 0.5197 | 0.243 ± 0.00406 | –
[2], x1 = 0.5243 | 0.242 ± 0.00406 | –
[2], x1 = 0.5644 | 0.239 ± 0.00406 | –
[2], x1 = 0.6091 | 0.232 ± 0.00406 | –
[2], x1 = 0.6567 | 0.224 ± 0.00382 | –
[2], x1 = 0.7051 | 0.201 ± 0.00359 | –
[2], x1 = 0.7582 | 0.175 ± 0.00311 | –
[2], x1 = 0.8113 | 0.147 ± 0.00263 | –
[2], x1 = 0.8642 | 0.114 ± 0.00215 | –
[2], x1 = 0.9137 | 0.0779 ± 0.0016 | –
[2], x1 = 0.9601 | 0.04 ± 0.00105 | –
